Source: the supplement of paper PMC11061612

How the values were obtained:
Test in all cases: combination Emax (second highest fraction inhibited in the dose matrix, 72 h); higher = more inhibition; extreme values may be limits of the assay
[1] = tested on: MLMA (Other Blood Carcinomas)
Summary of the method: (§1)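 Bliss excess equals the observed combination effect minus the expected value EA + EB − EA·EB, where EA and EB are the effects of each agent alone. Combination Emax is the second-highest inhibition within the matrix. Inhibition was scaled from CellTiter-Glo 2.0 luminescence, with 0 set by vehicle wells and 1 by blank wells, after 72 hours of two-drug dosing of cells plated in 1536-well plates.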

[2] = tested on: OSC-20 (Oral Cavity Carcinoma)
Summary of the method: as §1

[3] = tested on: NUGC-3 (Gastric Carcinoma)
Summary of the method: as §1

[4] = tested on: HGC-27 (Gastric Carcinoma)
Summary of the method: as §1

[5] = tested on: NCI-H727 (Other Solid Carcinomas)
Summary of the method: as §1

[6] = tested on: EoL-1-cell (Acute Myeloid Leukemia)
Summary of the method: as §1

[7] = tested on: NCI-H358 (Lung Adenocarcinoma)
Summary of the method: as §1

[8] = tested on: NB69 (Neuroblastoma)
Summary of the method: as §1

[9] = tested on: Caov-4 (Ovarian Carcinoma)
Summary of the method: as §1

[10] = tested on: LU-65 (Non-Small Cell Lung Carcinoma)
Summary of the method: as §1

[11] = tested on: PWR-1E (Non-Cancerous)
Summary of the method: as §1

[12] = tested on: OE19 (Esophageal Adenocarcinoma)
Summary of the method: as §1

[13] = tested on: EW-24 (Ewing's Sarcoma)
Summary of the method: as §1

[14] = tested on: SW13 (Other Solid Carcinomas)
Summary of the method: as §1

[15] = tested on: D-263MG (Glioblastoma)
Summary of the method: as §1

[16] = tested on: Hs-766T (Pancreatic Carcinoma)
Summary of the method: as §1

[17] = tested on: HSC-4 (Oral Cavity Carcinoma)
Summary of the method: as §1

[18] = tested on: YH-13 (Glioblastoma)
Summary of the method: as §1

[19] = tested on: MIA-PaCa-2 (Pancreatic Carcinoma)
Summary of the method: as §1

[20] = tested on: HOP-62 (Lung Adenocarcinoma)
Summary of the method: as §1

Structure (SMILES)	combination Emax [1]	combination Emax [2]	combination Emax [3]	combination Emax [4]	combination Emax [5]	combination Emax [6]	combination Emax [7]	combination Emax [8]	combination Emax [9]	combination Emax [10]	combination Emax [11]	combination Emax [12]	combination Emax [13]	combination Emax [14]	combination Emax [15]	combination Emax [16]	combination Emax [17]	combination Emax [18]	combination Emax [19]	combination Emax [20]
CC1(C)CCC(CN2CCN(c3ccc(C(=O)NS(=O)(=O)c4ccc(NCC5CCOCC5)c([N+](=O)[O-])c4)c(Oc4cnc5[nH]ccc5c4)c3)CC2)=C(c2ccc(Cl)cc2)C1 [Venetoclax] + C[C@@H]1COCCN1C2=NC(=NC(=C2)C3(CC3)[S@](=N)(=O)C)C4=C5C=CNC5=NC=C4 [AZD6738] (first compound max 1 µM, 7x7, partner max 10 µM)	0.909	0.425	0.711	0.8	0.616	1	0.731	0.884	0.751	0.652	0.932	0.673	0.731	0.472	0.515	0.565	0.601	0.5	0.666	0.624
NC1(C(=O)N[C@@H](CCO)c2ccc(Cl)cc2)CCN(c2ncnc3[nH]ccc23)CC1 [Capivasertib] + C[C@@H]1COCCN1C2=NC(=NC(=C2)C3(CC3)[S@](=N)(=O)C)C4=C5C=CNC5=NC=C4 [AZD6738] (first compound max 10 µM, 7x7, partner max 10 µM)	0.771	0.431	0.74	0.923	0.58	1	0.554	0.849	0.825	0.632	0.947	0.698	0.786	0.712	0.442	0.437	0.73	0.648	0.542	0.652
CC1(C)CCC(CN2CCN(c3ccc(C(=O)NS(=O)(=O)c4ccc(NCC5CCOCC5)c([N+](=O)[O-])c4)c(Oc4cnc5[nH]ccc5c4)c3)CC2)=C(c2ccc(Cl)cc2)C1 [Venetoclax] + C[C@@H](Nc1cc(F)cc(F)c1)c1cc(C(=O)N(C)C)cc2c(=O)cc(N3CCOCC3)oc12 [AZD8186] (first compound max 1 µM, 7x7, partner max 3 µM)	0.89	0.128	0.183	0.54	0.274	1	0.149	0.998	0.171	0.199	0.173	0.306	0.26	0.128	0.142	0.349	0.177	0.441	0.153	0.264
COc1cccc(OCCCN)c1-c1cc(Nc2cnc(C#N)cn2)n[nH]1 [Prexasertib] + C=CCn1c(=O)c2cnc(Nc3ccc(N4CCN(C)CC4)cc3)nc2n1-c1cccc(C(C)(C)O)n1 [AZD1775] (first compound max 1 µM, partner max 1 µM)	0.963	0.534	0.873	0.991	0.701	0.998	0.769	1	0.98	0.873	0.975	0.943	0.7	0.526	0.888	0.694	0.641	0.858	0.987	0.627
CCN(CCO)CCCOc1ccc2c(Nc3cc(CC(=O)Nc4cccc(F)c4)[nH]n3)ncnc2c1 [AZD2811] + C[C@@H]1COCCN1C2=NC(=NC(=C2)C3(CC3)[S@](=N)(=O)C)C4=C5C=CNC5=NC=C4 [AZD6738] (first compound max 1 µM, 7x7, partner max 10 µM)	0.684	0.449	0.697	0.802	0.559	1	0.55	0.815	0.784	0.668	0.908	0.864	0.567	0.537	0.619	0.547	0.677	0.54	0.644	0.436
CCN(CCO)CCCOc1ccc2c(Nc3cc(CC(=O)Nc4cccc(F)c4)[nH]n3)ncnc2c1 [AZD2811] + O=C(c1cc(Cc2n[nH]c(=O)c3ccccc23)ccc1F)N1CCN(C(=O)C2CC2)CC1 [Olaparib] (first compound max 1 µM, 7x7, partner max 10 µM)	0.223	0.382	0.274	0.915	0.346	1	0.184	0.659	0.19	0.265	0.538	0.714	0.337	0.364	0.418	0.186	0.245	0.474	0.469	0.155
